Earlier results as cited in patent publication US7718389B2, “Stabilizing composition and stabilizing method of coelenterazine solution for high-throughput measurement of luciferase activity” (National Institute of Advanced Industrial Science and …, priority 2006, dated 2010).

Conditions: background statement

pKa value of proton of an imidazopyrazinone ring: around 7.4
SMILES: Oc1ccc(Cc2nc3c(Cc4ccccc4)nc(-c4ccc(O)cc4)cn3c2O)cc1 [coelenterazine]
